The values that follow come from publication PMC7934871 (JCI Insight, 2021).

For series [1], the system named is IL-6–induced STAT3 phosphorylation. The experiment in a line: IL-6–induced STAT3 phosphorylation, Western blotting. It counts as cell-based. Conditions: preincubated 2 hours, 20 ng/mL IL-6 for 30 minutes. As for the experimental part:
Figure 8 PS-Gp130 and PS-MYC blocking peptides efficiently internalize into tumor cells to exert their functions. (A) For 1 hour 1 μM of PS-conjugated MYC (PS-MYC) and Gp130 (PS-Gp130) were incubated with cancer cells. PS-scramble MYC (PS-SC-MYC) was used as a control for PS-MYC. The peptide uptake was visualized by confocal microscopy and quantified by flow cytometry. Data are representative of 3 independent experiments (n = 3). (B) Upper panel: The binding of PS-Gp130 and STAT3 was examined by immunoprecipitation and Western blotting. PO-Gp130 was used as a control. For 4 hours prior to harvest, 1 μM of peptide was incubated with cells. Lower panel: PS-Gp130 inhibits IL-6–induced phosphorylation of STAT3 and p44/42 but not EGF-mediated signaling. The cells were preincubated with PS-Gp130 for 2 hours and then stimulated with 20 ng/mL of IL-6 or 30 ng/mL of EGF for 30 minutes before harvest and Western blotting. (C) Gene expression of STAT3 targets was examined by quantitative PCR after the treatment with 1 μM of PS-Gp130 with or without IL-6 stimulation as described above. Data shown are 3 independent experiments (n = 3); SD is shown. Unpaired Student’s t test; ***P < 0.005; **P < 0.01; *P < 0.05. (D) A total of 1 μM of PS-SC-MYC or PS-MYC was incubated with cells for 48 hours before the gene expression of MYC targets was examined by quantitative PCR. […]
On the technique in general: A western blot detects proteins with antibodies after separation by electrophoresis.

In series [2] the test system is HCT116 xenografted tumors. As for the experimental part:
For in vivo study, HCT116 cells were subcutaneously engrafted into NSG mice. After tumors reached an average size of approximately 5 mm, mice were locally treated with 1 mg/kg of FAM-labeled PS-unacet.-STAT3, PS-STAT3-K685R, or PS-acet.-STAT3 peptides (Anaspec) every day for 35 days. Twenty-four hours after the last treatment, tumors were harvested and analyzed by IF staining and 20× immersion objective on LSM 700 confocal microscope (ZEISS). Images were quantified using Zen software (ZEISS).
Supplemental Figure 5 (related to Figure 2). […]
(C to G) Subcutaneous HCT116 xenografts treated with FAM-labeled PS-unacet.-STAT3, PS-STAT3-K685R or PS-acet.-STAT3 peptides every other day at 1 mg/kg for 40 days.
(C) Retention of PS-acet.-STAT3 peptide was visualized with IF staining of tissue sections followed by confocal microscopy. n= 6 tumor tissues. Scales, 50 µm.
(E) The mRNA levels of CASP9, BIRC5 and BCL2L1 from the same tumor tissues described above were assessed by qRT-PCR. SD is shown. n= 3 independent experiments. One-way […]
(F) IF staining of cell proliferation (Ki-67) and vascularization (CD-31) markers upon peptide treatments in HCT116 tumor tissues. Scales; 50 and 100 µm (upper panels). The lower panels show the quantification of Ki-67 and CD-31. n= 6 tumor tissues.
Same protein samples were used from (D).
Aftabizadeh and Li et al., Figure S5

Non-standard residues stand in square brackets, D forms with d. No end group written: not given here. pY = N[C@@H](Cc1ccc(OP(=O)(O)O)cc1)C(=O)O

On to “PS-Gp130: PS-conjugated Gp130 peptide (amino acids 901–910) with phospho-Tyr905 (MPKS[pY]LPQTV; also: phosphorothioate oligonucleotide conjugate; UniProt P40189 901-910, looked up, fragment)”, for which the “IL-6–induced STAT3 phosphorylation” value in series [1] is given as “selectively inhibited”.
In the case of “PDIPKEEAFGK685(Ac)YCRPESQEHPC-linker-T*C*C*A*T*G*A*G*C*T*T*C*C*T*G*A*T*G*C*T [PS-acet.-STAT3 peptide]”, the “tumor progression (proliferation marker Ki-67 and angiogenesis marker CD31)” value in series [2] (HCT116 xenograft, 1 mg/kg local, IF staining) was “effectively inhibited”. Moreover, the “STAT3 phosphorylation in tumors” value in series [2] (HCT116 xenograft, 1 mg/kg local, immunoprecipitation and Western blotting) is “effectively inhibited”. In addition, the “transcriptional regulation (CASP9, BIRC5, BCL2L1 mRNA) in tumors” value in series [2] (HCT116 xenograft, 1 mg/kg local, qRT-PCR) is listed as “effectively inhibited”. In addition, the “acetylation of STAT3 in tumors” value in series [2] (HCT116 xenograft, same samples as STAT3 phosphorylation) is on record as “only moderately suppressed”. Moreover, in series [2] (mouse, in vivo, 1 mg/kg), the “cellular retention of peptide in tumors in vivo” value was “retained in tumors at significantly higher levels”.
